How the values were obtained:
[1] = target: hemoglobin (Homo sapiens, UniProt P68871+P69905); conditions: in vitro and in vivo; cited from earlier work
[2] = target: T1, hemoglobin (Homo sapiens, UniProt P68871+P69905, E7V); test: Whole blood hemoximetry (oxygen equilibrium curves, % Hb modification); type: in vivo; conditions: 500 mg
T1 construct: from tissue; host or cells: whole blood (red blood cells) of study subjects
Method: Whole blood hemoximetry was used to measure oxygen equilibration. Blood from healthy volunteers and sickle cell disease (SCD) patients was drawn into 1.8 mL sodium citrate tubes. These samples were stored overnight at 4° C. prior to hemoximetry measurements. Based upon the hematocrit of the blood, either 50 μL or 100 μL of blood was diluted into 5 mL of 37° C. TES buffer (30 mM TES, 130 mM NaCl, 5 mM KCl, pH 7.4 at 25° C.). Diluted sample were loaded into TCS Hemox Analyzer cuvettes and oxygenated for twenty minutes using compressed air. After oxygenation, the samples were deoxygenated using nitrogen gas until the pO2 reached 1.6 millimeters of mercury (mm Hg). Data during this deoxygenation step was collected into Oxygen Equilibrium Curve (OEC) files using the TCS Hemox Analytical Software (HAS). OEC files were then analyzed to obtain the p50 (the partial pressure of oxygen at which 50% of hemoglobin in a sample is saturated with O2) and the p20 (the partial pressure of oxygen at which 20% of hemoglobin in a sample is saturated with O2). Delta p20 values (p20predose−p20sample time) were then used to calculate the % Hb Modification.

[3] = Phase I study: hemolysis measures / response parameters in subjects with SCD; type: in vivo, human
Excerpt: (§1) The following example presents a Phase I randomised, placebo-controlled, double-blind, single and multiple ascending dose study of the tolerability and pharmacokinetics of Compound 1 (GBT440) in healthy subjects and patients with Sickle Cell Disease.
Other Outcome Measures: • Percentage of sickled cells under ex vivo conditions [Time Frame: 30 days] • Effect of GBT440 on hemolysis as measured by LDH, direct bilirubin, hemoglobin, and reticulocyte count [Time Frame: 30 days] • Change from baseline in pain as measured by visual analog scale [Time Frame: 30 days] • Change from baseline in fatigue as measured by questionnaire [Time Frame: 30 days] • Exercise capacity as measured by 6-minute walk test [Time Frame: 30 days]
(§2) Experimental: GBT440 • Subjects randomized 6:2 to receive daily oral dosing of GBT440 or placebo for 1 day (single dose) and up to 28 days (multiple dose)
Inclusion Criteria: • Healthy male or female of non-child bearing potential; 18 to 55 years old; are non-smokers and have not used nicotine products within 3 months prior to screening. • Male or female, 18 to 60 years old, with sickle cell disease (hemoglobin SS) not requiring chronic blood transfusion therapy; without hospitalization in 30 days before screening or receiving blood transfusion within 30 days before screening; subjects are allowed concomitant use of hydroxyurea if the dose has been stable for the 3 months prior to screening. […]

[4] = test system: sickle cells; test: Irreversibly sickled cells counted in peripheral blood smears; type: in vivo, human
Excerpt: To quantify irreversibly sickled cells (ISCs), six different fields were randomly selected and imaged at 40× magnification per slide. Each field contained 100 to 300 cells and >500 cells (in 3 or more fields) were counted per blood smear slide. Cells that were classically sickled shape or appeared linear (with length equal to or more than 3× the width) with irregular or pointed edges were counted as sickled. Elliptical red blood cells (also appearing linear but with length approximately twice the width) with smooth rounded edges were counted as normal. In general, isolated non-discoid cells with spiky turns were counted as sickled.
Morphological criteria for sickle cells included the following categories: (1) non-discoid irregular shaped cells with irregular or pointed edges; (2) elliptocytes with length more than twice the width and with irregular or pointed edges; and (3) irregular shaped elliptocytes.

[5] = Phase I study: whole blood and plasma pharmacokinetics of GBT440 (LC-MS-MS); type: in vivo, human; conditions: for half-life: human, whole blood, oral
Method: as §1, §2
Analysis of whole blood was performed as follows. 50 μL of diluted whole blood was mixed with 20 μL of GBT1592 (GBT440-D7) solution in acetonitrile. 0.3 mL of 0.1M citrate buffer solution (pH 3) was added to the sample, and the sample mixed briefly by vortexing, followed by sonication for 10 minutes. 2.0 mL methyl tert butyl ether (MTBE) was added to the sample, and the sample was capped, and mixed thoroughly by vortexing at high speed for 20 minutes. The sample was then centrifuged at 3300 rpm at room temperature for 10 minutes. 0.2 mL of the clear organic layer of the centrifuged sample was then transferred to a clean 96-well 2-mL plate, and the solvent was evaporated to dryness. […] The resultant reconstituted extract was analyzed by liquid chromatography mass spectrometry (LCMS).
For the LCMS, a Sciex API 4000 LC-MS-MS was equipped with an HPLC column. The peak area of the m/z 338.1→158.1 GBT440 product ion was measured against the peak area of the m/z 345.2→159.1 GBT1592 (GBT440-D7) internal standard product ion.
The whole blood samples, obtained as described above, were analyzed for pharmacokinetic parameters and RBC:Plasma ratios, as follows.
Terminal half-life and other pharmacokinetic parameters were calculated using Phoenix WinNonlin software. Apparent terminal half-life (t1/2) values were calculated as ln(2)/k, where k is the terminal elimination rate constant which is obtained by performing a linear regression on the terminal phase of a plot of the natural logarithm (ln) of concentration versus time.
RBC:Plasma ratio was calculated using the equation below. […]

[6] = 500 mg (Cohort 12), n = 10, subjects with SCD
[7] = 700 mg (Cohort 11), n = 12, subjects with SCD
[8] = 1000 mg (500 mg twice daily, Cohort 14), n = 5, subjects with SCD

O=Cc1ccc(CO)o1 [Compound 5HMF, 5-hydroxymethyl-2-furfuraldehyde]
hemoglobin modulation [1]: potent hemoglobin modulator both in vitro and in vivo

CC(C)n1nccc1-c1ncccc1COc1cccc(O)c1C=O [Compound 1, 2-hydroxy-6-((2-(1-isopropyl-1h-pyrazol-5-yl)pyridin-3-yl)methoxy)benzaldehyde]
hemoglobin modification ([2]; 700 mg (FIG. 3)): proportional to dose
shift of the oxygen equilibrium curve ([2]; 700 mg vs placebo, SCD subjects (FIG. 3)): left shift of the oxygen equilibrium curve
Hemoglobin, change from baseline to Day 28, median [3, 6]: 0.4 g/dL
Lactate dehydrogenase, change from baseline to Day 28, median [3, 6]: −19.8%
Reticulocytes, change from baseline to Day 28, median [3, 6]: −31.2%
Unconjugated bilirubin, change from baseline to Day 28, median [3, 6]: −30.6%
change in hemoglobin over time ([3]; 500 mg, 700 mg vs placebo (FIG. 4)): rapid and progressive rise in hemoglobin levels
percent change in reticulocytes over time ([3]; 500 mg, 700 mg vs placebo (FIG. 5)): profound decline in reticulocytes
Hemoglobin, change from baseline to Day 28, median [3, 7]: 0.7 g/dL
Lactate dehydrogenase, change from baseline to Day 28, median [3, 7]: −11.9%
Reticulocytes, change from baseline to Day 28, median [3, 7]: −37.0%
Unconjugated bilirubin, change from baseline to Day 28, median [3, 7]: −42.6%
hemoglobin response, higher dose level compared to lower ([3]; 700 mg compared to 500 mg (FIG. 4)): trend for a better response
Hemoglobin, change from baseline to Day 28, median [3, 8]: 0.0 g/dL
Lactate dehydrogenase, change from baseline to Day 28, median [3, 8]: −12.4%
Reticulocytes, change from baseline to Day 28, median [3, 8]: −49.9%
Unconjugated bilirubin, change from baseline to Day 28, median [3, 8]: −56.3%
reticulocyte counts versus exposure ([3]; higher GBT440 exposures, day 28 (FIG. 8)): more profound reduction in reticulocyte counts
hematologic response by Hb occupancy ([3]; participants who achieved >20% Hb occupancy compared to those who did not): improved hematologic response
Irreversibly sickled cells, change from baseline to Day 28, median [4, 6]: −56.4%
percent sickle cells over time ([4]; 500 mg, 700 mg vs placebo, 28 day dosing period (FIG. 6)): reduced sickle cells in the peripheral blood
Irreversibly sickled cells, change from baseline to Day 28, median [4, 7]: −45.9%
Irreversibly sickled cells, change from baseline to Day 28, median [4, 8]: −45.7%
sickle cells in peripheral blood smears ([4]; subject treated with 700 mg, day 1 vs day 28 (FIGS. 7A-7B)): marked reduction in sickle cells
half-life ([5]; SCD subjects): ~38.4 h
half-life ([5]; healthy subjects): ~72 h
increase in GBT440 with dose ([5]; single and multiple dosing): dose proportional increase

— patent US11944612B2, “Dosing regimens for 2-hydroxy-6-((2-(1-isopropyl-1H-pyrazol-5-yl)pyridin-3-yl)methoxy)benzaldehyde” (Global Blood Therapeutics, Inc., priority 2015, dated 2024)
